From patent US20110218210A1, “COMPOUNDS FOR TREATING ABNORMAL CELLULAR PROLIFERATION” (priority 2007, published 2011)
Like-named read-outs stand apart in the source and are kept apart here.

Experiments:
[1] = assay type: in vivo; conditions: immune deficient mice reconstituted with murine hematopoetic stem cell lines; 7 daily injections of 1 mM concentrations
Description: Immune deficient mice that are reconstituted with the murine hematopoetic stem cell lines are injected with 10,000× the effective in vitro concentration of a drug. Briefly, mice are given 7 daily injections of 1 mM concentrations of one of 4-Amino-7-[(2R,3S,4S,5R)-3,4-dihydroxy-5-(hydroxymethyl)oxolan-2-yl]-6-hydrazinylpyrrolo[5,4-d]pyrimidine-5-carboxamide, 2-[(2-chloro-4-nitrophenanthridin-6-yl)amino]ethanol, and 5-(anthracen-1-ylmethylidene)-2-sulfanylidene-1,3diazinane-4,6-dione. After the 7th day the mice are monitored for overt side-effects and survival.

[2] = test system: leukemic stem cell clone ABM42 C31; assay: MTS viability assay, murine leukemic stem cell line; assay type: cell-based; conditions: serial two-fold dilutions starting from 10 μM, 24 h, FIG. 1
Description: (§1) Leukemic stem cell lines and normal hematopoetic stem cell lines are separately maintained in cultures as described above. For viability assays, the cell lines are passed 24-36 hours prior to use in the assay, in order to test for sensitivity to specific drugs with cells in log-phase growth. Cells are plated in 96-well flat bottom plates (Greiner, Switzerland), at a concentration of 10^4 cells for the leukemic stem cell lines and normal hematopoietic stem cell lines, or 10^5 for the primary human fetal cord blood cells. Cells are plated in a final volume of 200 μl containing RPMI-1640 growth medium, supplemented as described above. Cells are either plated in medium alone, or medium containing a drug of interest. All drugs are tested in 11 different concentrations in order to derive sensitivity curves. The individual conditions were set up in triplicate wells, and at least three independent assays are performed to validate a specific observation.
(§2) The cells are cultured with the specific drug concentration for 24 hours at 37° C. in a 5% CO2 atmosphere. After culturing the cells under the experimental conditions for 23 hours, the wells are supplemented with 10 μl of the CellTiter 96 Aqueous Non-radioactive Cell Proliferation MTS reagent (Promega, Madison Wis.), and incubated in a 37° C. incubator (5% CO2) for 60 minutes. All plates are analyzed using a plate reader (Molecular Devices) using a filter set for O.D. 405. All values are used to derive standard errors, and compared among the different independent assays.
(§3) These compounds are screened for the ability to inhibit leukemic stem cell viability but not affect normal hematopoietic stem cells by incubating the compounds with cells using serial two-fold dilutions starting from 10 μM stocks.

[3] = test system: normal murine hematopoietic stem cell line "BL/6 BM"; assay: MTS viability assay, normal murine hematopoietic stem cell line; assay type: cell-based; conditions: serial two-fold dilutions starting from 10 μM, 24 h, FIG. 1
Description: as §1, §2, §3

[4] = test system: ABM 42 C31 leukemic stem cells; assay: Therapeutic trial: survival of mice transplanted with leukemic stem cells (pre-clinical model of AML); assay type: in vivo; conditions: 7 daily injections of 250 ul of 10 uM solution, intravenously, from clinical signs (about 15 d post-transplant); FIG. 5
From the text: Groups of 3-5 mice are utilized for each of the experimental protocols. Transplantation of tumors is done by injecting 10^3 cells intravenously into cohorts of sub-lethally irradiated (450R)C57/BL6/Rag −/− mice ranging in age from 4-6 weeks. The mice are monitored daily for clinical signs of disease. These clinical signs included externally evident splenomegaly, a hunched posture and reduce mobility, labored breathing, dehydration, scruffy fur and an ascending paralysis in a minority of cases. […] The mice then receive daily injections of the indicated agents for 7 days. Mice are held indefinitely to ascertain rates of survival.
Into cohorts of sublethally irradiated mice are transplanted 10^3 ABM 42 C31 leukemic stem cells. Treatment of the mice when they develop clinical signs of disease (hunched posture, rapid breathing, scruffled fur at approximately 15d post-transplant). Mice receive 7 daily injections of 250 ul XPBS solutions containing 10 uM concentrations of 4-Amino-7-[(2R,3S,4S,5R)-3,4-dihydroxy-5-(hydroxymethyl)oxolan-2-yl]-6-hydrazinylpyrrolo[5,4-d]pyrimidine-5-carboxamide, 2-[(2-chloro-4-nitrophenanthridin-6-yl)amino]ethanol, and 5-(anthracen-1-ylmethylidene)-2-sulfanylidene-1,3diazinane-4,6-dione. After the 7th day the mice are monitored for survival. FIG. 5 illustrates that administration of the compounds delay mortality in a pre-clinical model of AML disease.

leukemic stem cells [5] = assay: Flow cytometric analysis of apoptosis induction (7AAD); assay type: cell-based; conditions: 10 μM; 24 h; versus normal murine hematopoietic stem cell lines; FIG. 2
Description: For analysis of apoptosis in leukemic stem cells or in normal hematopoietic stem cell lines, cells are cultured (in triplicate) with the specific drug concentration for 24 hours at 37° C. in a 5% CO2 atmosphere. Cell suspensions obtained from cultured cells are washed twice in FACS buffer, incubated for 20 minutes with 4 μM 7-aminoactinomycin-D (7AAD, Calbiochem), and washed with FACS buffer. Stained cells are resuspended in PBS and analyzed immediately on a flow cytometer.
4-Amino-7-[(2R,3S,4S,5R)-3,4-dihydroxy-5-(hydroxymethyl)oxolan-2-yl]-6-hydrazinylpyrrolo[5,4-d]pyrimidine-5-carboxamide, 2-[(2-chloro-4-nitrophenanthridin-6-yl)amino]ethanol, and 5-(anthracen-1-ylmethylidene)-2-sulfanylidene-1,3diazinane-4,6-dione preferentially kill murine leukemic stem cell viability vs. normal murine hematopoietic stem cell line. These compounds are screened to determine whether the effect of the compounds on reduced viability was due to inhibiting proliferation, or direct killing through apoptosis. The cells are analyzed by flow cytometric analysis for the exclusion of 7-aminoactinomycin-D (7AAD). At a concentration of 10 μM, cells are incubated in a 5% CO2 atmosphere for 24 h. After two washes in 1×PBS the cells are incubated with 4 μM 7-aminoactinomycin-D (7AAD) for 20 min.

[6] = test system: leukemic cell line (U937); assay: MTS viability assay, human leukemic cell line; assay type: cell-based; conditions: serial two-fold dilutions beginning with 10 μM, 24 h, FIG. 3
Description: as §1, §2
These compounds are incubated with cells using serial two-fold dilutions beginning with 10 μM.

[7] = mouse, in vivo
[8] = Bone marrow toxicity in mice (FIG. 17); conditions: compared to mice treated with methotrexate (MTX)
[9] = test system: primary unmanipulated fetal cord blood cells; assay: MTS viability assay, primary fetal cord blood cells; assay type: cell-based, human; conditions: at the drug concentrations tested (two-fold dilutions from 10 μM), 24 h, FIG. 4
Description: as §1
The cells are cultured with the specific drug concentration for 24 hours at 37° C. in a 5% CO2 atmosphere. […] All plates are analyzed using a plate reader (Molecular Devices) using a filter set for O.D. 405. […]

[10] = test system: normal hematopoietic stem cells; assay: Effect on normal hematopoietic stem cells (FIG. 6); assay type: cell-based
leukemic stem cells [11] = assay: Killing of leukemic stem cells (FIG. 6); assay type: cell-based

| SMILES | mortality [1] | viability of leukemic stem cells [2] | viability of normal murine hematopoietic stem cell line [3] | survival of mice transplanted with leukemic stem cells [4] | apoptosis induction (7AAD positive/GFP negative) (leukemic stem cells [5]) | viability of human leukemic cell lines [6] | bone marrow toxicity [7] | bone marrow toxicity [8] | viability of primary unmanipulated fetal cord blood cultures [9] | effect on normal hematopoietic stem cells [10] | effect on leukemic stem cells (leukemic stem cells [11]) |
| --- | --- | --- | --- | --- | --- | --- | --- | --- | --- | --- | --- |
| O=[N+]([O-])c1cc(Cl)cc2c1nc(NCCO)c1ccccc12 [2-[(2-chloro-4-nitrophenanthridin-6-yl)amino]ethanol] | none of the mice died | preferentially inhibited viability | but not the normal murine hematopoietic stem cell line | increase survival | induce apoptosis preferentially in leukemic stem cells | preferentially inhibited viability of the leukemic cell lines | less bone marrow toxicity | – | – | – | – |
| NNc1c(C(N)=O)c2c(N)ncnc2n1[C@@H]1O[C@H](CO)[C@@H](O)[C@@H]1O [4-amino-7-[(2R,3S,4S,5R)-3,4-dihydroxy-5-(hydroxymethyl)oxolan-2-yl]-6-hydrazinylpyrrolo[5,4-d]pyrimidine-5-carboxamide] | none of the mice died | preferentially inhibited viability | but not the normal murine hematopoietic stem cell line | increase survival | induce apoptosis preferentially in leukemic stem cells | preferentially inhibited viability of the leukemic cell lines | – | less bone marrow toxicity | – | – | – |
| O=C1NC(=S)NC(=O)C1=Cc1cccc2cc3ccccc3cc12 [5-(anthracen-1-ylmethylidene)-2-sulfanylidene-1,3diazinane-4,6-dione] | none of the mice died | preferentially inhibited viability | but not the normal murine hematopoietic stem cell line | increase survival | induce apoptosis preferentially in leukemic stem cells | preferentially inhibited viability of the leukemic cell lines | – | less bone marrow toxicity | no decrease in viability | – | – |
| CN(Cc1cnc2nc(N)nc(N)c2n1)c1ccc(C(=O)N[C@@H](CCC(=O)O)C(=O)O)cc1 [methotrexate] | – | – | – | – | – | – | – | – | – | killed | killed |
